Laboratory results as given in patent US20230086702A1, “SUBSTITUTED 2-AMINO-PYRAZOLYL-[1,2,4]TRIAZOLO[1,5A]PYRIDINE DERIVATIVES AND USE THEREOF” (The Johns Hopkins University, priority 2019, published 2023).

What was measured:
DLK = biological target: T1, DLK (Homo sapiens, UniProt Q12852); experiment: DLK biochemical assay (TR-FRET, MKK7 phosphorylation); settings: DLK catalytic domain, MKK7 substrate, 60 μM ATP
T1 construct: 10 nM DLK, catalytic domain, Carna Biosiences; purchased Carna Biosciences ('Carna Biosiences' [sic])
T1 sequence (Q12852 125-366 limits assumed): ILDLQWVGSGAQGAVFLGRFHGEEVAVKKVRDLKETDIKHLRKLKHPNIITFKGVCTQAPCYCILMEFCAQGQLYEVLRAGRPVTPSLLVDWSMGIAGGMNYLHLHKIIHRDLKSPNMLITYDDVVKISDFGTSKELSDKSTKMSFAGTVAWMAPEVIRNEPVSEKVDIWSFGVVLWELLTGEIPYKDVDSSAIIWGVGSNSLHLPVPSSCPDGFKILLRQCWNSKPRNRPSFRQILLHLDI
Outline: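 Human DLK activity measured as phosphorylation of His-tagged MKK7 at T275/S277, detected by TR-FRET between Eu-anti-phospho-MKK7 donor (excitation 340 nm) and XL665-anti-His acceptor (665 nm). Signal taken as the XL665/Eu ratio. Detection buffer: 25 mM Tris/HCl pH 7.5, 100 mM EDTA, 100 mM NaCl, 200 mM KF, 0.01% Tween 20.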

LZK = biological target: T2, LZK (Homo sapiens, UniProt O43283); experiment: LZK biochemical assay (TR-FRET, MKK7 phosphorylation); settings: LZK catalytic domain, MKK7 substrate, 15 μM ATP
T2 construct: 10 nM LZK, catalytic domain, Carna Biosiences in assay buffer; purchased Carna Biosciences ('Carna Biosiences' [sic])
T2 sequence (O43283 168-409 limits assumed): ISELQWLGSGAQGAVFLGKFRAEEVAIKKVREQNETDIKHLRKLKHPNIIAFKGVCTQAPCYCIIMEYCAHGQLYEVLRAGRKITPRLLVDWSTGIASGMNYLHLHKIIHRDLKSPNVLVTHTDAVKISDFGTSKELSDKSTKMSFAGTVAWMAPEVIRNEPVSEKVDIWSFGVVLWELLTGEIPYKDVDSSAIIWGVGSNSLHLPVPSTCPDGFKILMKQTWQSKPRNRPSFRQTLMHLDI

Compound | IC50 (DLK) [nM] | IC50 (LZK) [nM]
C[C@@H](CO)NC(=O)c1cc(-c2cnn(C(c3ccc(C(F)(F)F)nc3)C3CCOCC3)c2)cn2nc(N)nc12 (mixture of isomers) [Example I-154, 2-Amino-N-[(25)-1-hydroxypropan-2-yl]-6-(1-{tetrahydro-2H-pyran-4-yl[6-(trifluoromethyl)pyridin-3-yl]methyl}-1H-pyrazol-4-yl)[1,2,4]triazolo[1,5-a]pyridine-8-carboxamide] | 1.1 | 4.6
CC[C@H](C)NC(=O)c1cc(-c2cnn(C(c3ccc(C(F)(F)F)nc3)C(C)C)c2)cc2nc(N)nn12 (mixture of isomers) [Example I-104, 2-Amino-N-[(2S)-butan-2-yl]-7-(1-{2-methyl-1-[6-(trifluoromethyl)pyridin-3-yl]propyl}-1H-pyrazol-4-yl)[1,2,4]triazolo[1,5-a]pyridine-5-carboxamide] | 1.3 | 2.9
CC[C@H](C)NC(=O)c1cc(-c2cnn(C(c3ccc(C(F)(F)F)nc3)C3CCNCC3)c2)cn2nc(N)nc12 (single isomer, unassigned) [Example I-83] | 0.3 | 0.7
CC[C@H](C)NC(=O)c1cc(-c2cnn(C3CCCc4ccncc43)c2)cc2nc(N)nn12 (mixture of isomers) [Example I-21, 2-Amino-N-[(2S)-butan-2-yl]-7-[1-(5,6,7,8-tetrahydroisoquinolin-8-yl)-1H-pyrazol-4-yl][1,2,4]triazolo[1,5-a]pyridine-5-carboxamide] | 33 | 5.1
CC[C@H](C)NC(=O)c1cc(-c2cnn(C(CC(F)(F)F)c3ccccc3)c2)cn2nc(N)nc12 (single isomer, unassigned) [Example I-38] | 1.3 | 91
CCC(c1ccc(OCC(F)(F)F)nc1)n1cc(-c2cc(C(=O)N[C@@H](C)CC)c3nc(N)nn3c2)cn1 (single isomer, unassigned) [Example I-87] | 1.3 | 16
CC[C@H](C)NC(=O)c1cc(-c2cnn(C(c3ccc(C(F)(F)F)nc3)C3CCOCC3)c2)cn2nc(N)nc12 (single isomer, unassigned) [Example I-78] | 0.7 | 1.7
CC[C@H](C)NC(=O)c1cc(-c2cnn([C@H](c3ccnc(OC)c3)C(C)C)c2)cc2nc(N)nn12 (single isomer, unassigned) [Example I-128] | 0.5 | 3.3
CC[C@H](C)NC(=O)c1cc(-c2cnn(C(c3ccc(C(F)F)nc3)C3CC3)c2)cc2nc(N)nn12 (mixture of isomers) [Example I-98, 2-Amino-N-[(2S)-butan-2-yl]-7-(1-{cyclopropyl[6-(difluoromethyl)pyridin-3-yl]methyl}-1H-pyrazol-4-yl)[1,2,4]triazolo[1,5-a]pyridine-5-carboxamide] | 8.6 | 7.3
CC[C@H](c1ccc(C(F)(F)F)nc1)n1cc(-c2cc(C(=O)N[C@@H](C)CC)n3nc(N)nc3c2)cn1 (single isomer, unassigned) [Example I-102] | 7 | 11
CC[C@H](C)NC(=O)c1cc(-c2cnn(C(c3ccc(C(F)F)nc3)C(C)C)c2)cc2nc(N)nn12 (single isomer, unassigned) [Example I-96] | 14 | 17
CC[C@H](NC(=O)c1cc(-c2cnn(Cc3ccccc3)c2)cn2nc(N)nc12)C(F)(F)F (single isomer, unassigned) [Example I-133] | 110 | 330
CC[C@H](C)NC(=O)c1cc(-c2cnn(C3CCc4ccccc43)c2)cn2nc(N)nc12 (single isomer, unassigned) [Example I-15] | 31 | 7.8
CCC(c1ccc(OCC(F)(F)F)nc1)n1cc(-c2cc(C(=O)N[C@H]3CCOC3)n3nc(N)nc3c2)cn1 (mixture of isomers) [Example I-186] | 6.2 | 16
CCC(c1ccc(C(F)(F)F)nc1)n1cc(-c2cc(C(=O)NC(C)(C)CO)c3nc(N)nn3c2)cn1 (single isomer, unassigned) [Example I-165, 2-Amino-N-(1-hydroxy-2-methylpropan-2-yl)-6-(1-{1-[6-(trifluoromethyl)pyridin-3-yl]propyl}-1H-pyrazol-4-yl)[1,2,4]triazolo[1,5-a]pyridine-8-carboxamide] | 64 | 190
CCC(c1ccc(OC(F)(F)F)nc1)n1cc(-c2cc(C(=O)N[C@@H](C)CO)c3nc(N)nn3c2)cn1 (mixture of isomers) [Example I-157, 2-Amino-N-[(2S)-1-hydroxypropan-2-yl]-6-(1-{1-[6-(trifluoromethoxy)pyridin-3-yl]propyl}-1H-pyrazol-4-yl)[1,2,4]triazolo[1,5-a]pyridine-8-carboxamide] | 5.7 | 13
CC[C@H](C)NC(=O)c1cc(-c2cnn(C(c3ccc(OCC(F)(F)F)nc3)C3CC3)c2)cc2nc(N)nn12 (mixture of isomers) [Example I-119, 2-Amino-N-[(2S)-butan-2-yl]-7-(1-{cyclopropyl[6-(2,2,2-trifluoroethoxy)pyridin-3-yl]methyl}-1H-pyrazol-4-yl)[1,2,4]triazolo[1,5-a]pyridine-5-carboxamide] | 6.5 | 36
CC[C@H](C)NC(=O)c1cc(-c2cnn(C(c3ccc(C(F)(F)F)nc3)C3CCOCC3)c2)cc2nc(N)nn12 (single isomer, unassigned) [Example I-112] | 8 | 7
CC[C@H](C)NC(=O)c1cc(-c2cnn(C(c3ccc(C(F)F)nc3)C(C)C)c2)cn2nc(N)nc12 (single isomer, unassigned) [Example I-69] | 1 | 3.9
CC[C@@H](c1ccc(F)cc1)n1cc(-c2cc(C(=O)NC(C)CF)n3nc(N)nc3c2)cn1 (single isomer, unassigned) [Example I-150, 2-Amino-7-{1-[(15)-1-(4-fluorophenyl)propyl]-1H-pyrazol-4-yl}-N-(1-fluoropropan-2-yl)[1,2,4]triazolo[1,5-a]pyridine-5-carboxamide] | 6.5 | 60
CCC(c1ccc(C(F)(F)F)nc1)n1cc(-c2cc(C(=O)N[C@@H](C)CC)n3nc(N)nc3c2)cn1 (mixture of isomers) [Example I-101, 2-Amino-N-[(2S)-butan-2-yl]-7-(1-{1-[6-(trifluoromethyl)pyridin-3-yl]propyl}-1H-pyrazol-4-yl)[1,2,4]triazolo[1,5-a]pyridine-5-carboxamide] | 1.2 | 2.8
CC[C@H](C)NC(=O)c1cc(-c2cnn(C(c3ccc(C(F)(F)F)nc3)C3CCOCC3)c2)cn2nc(N)nc12 (single isomer, unassigned) [Example I-77] | 5.9 | 6.9
CC(CF)NC(=O)c1cc(-c2cnn(CC3CC3)c2)cn2nc(N)nc12 (racemic) [Example I-137, 2-Amino-6-[1-(cyclopropylmethyl)-1H-pyrazol-4-yl]-N-[1-fluoropropan-2-yl][1,2,4]triazolo[1,5-a]pyridine-8-carboxamide] | 140 | 150
